We go through one molecule from article PMC3337405 (Cancer Chemotherapy and Pharmacology, 2012).

The conditions of series [1]: cited from earlier work.
The test system of series [2] is healthy volunteers. The experiment in a line: Concentration–QT linear random-effects model. The format is in vivo, human. The following applies: plasma concentration of the analyte after midostaurin dosing, day 3. An excerpt:
Baseline QTcF was included in the model as a covariate. […] This exploratory analysis was applied to both the change from the time-matched baseline and the change from time-averaged baseline.

Series [3] can be described thus: Plasma pharmacokinetics, noncompartmental analysis. The following applies: human, plasma, 75 mg; for Cmax: mean (SD).
Protocol: Blood samples for PK analysis were collected predose and 0.5, 1, 2, 3, 4, 8, 12, and 24 h post dose on days 1 and 3 at the same time as ECG assessments. […] Noncompartmental analysis (WinNonlin™ version 5.2, Pharsight, Sunnyvale, California) was performed to determine the following PK parameters: C max, T max, minimum (trough) plasma concentration over a dosing interval (C min), and AUC calculated using a trapezoidal method. For moxifloxacin, the AUC from time 0 to the last measurable concentration sampling time was calculated (AUC0–tlast).

By Tmax is commonly meant the time from dosing to the highest level. For orientation: AUC(0-t) means the area under the concentration-time curve up to a stated or last time point. The low end stands for less exposure, the high end for more exposure. One may read the Cmax as the maximum level reached in the sampled fluid or tissue.

On to `CO[C@@H]1[C@H](N(C)C(=O)c2ccccc2)C[C@H]2O[C@]1(C)n1c3ccccc3c3c4c(c5c6ccccc6n2c5c31)C(=O)N[C@H]4O` [CGP52421], for which, in series [1] (daily oral dosing of midostaurin, plasma), the “concentration at steady state relative to midostaurin and CGP62221” value is reported as “approximately seven”. The half-life entry in series [1] (human participants) is recorded as “up to 1 month”. Besides, the “treatment needed to reach the steady state” value in series [1] (midostaurin dosing) is 21 to 28 days. Besides, the “concentration versus QTcF slope” value in series [2] was 0.2; in series [2] (listed as CPG52421) it was “either negative or not statistically significant”. Moreover, the time of peak concentration (Tmax) in series [3] (oral, time of peak concentrations post dose, midostaurin dosing, days 1 and 3) was 3 to 4 h; in series [3] (po, Tmax, median (range), Day 1 (single dose), midostaurin 75 mg oral), 4 h; in series [3] (po, Tmax, median (range), Day 3 (twice daily), midostaurin 75 mg oral), 3.1 h. The molecule further showed an AUC(0-t) in series [3] (po) of 3510 ng·h/mL. Moreover, the Cmax in series [3] (po, Day 1 (single dose), midostaurin 75 mg oral) came out at 384 ng/mL; in series [3] (po, Day 3 (twice daily), midostaurin 75 mg oral) it was 1250 ng/mL.
